Measurements published in article PMC11898488, “A2A Adenosine Receptor Antagonists and Their Efficacy in Rat Models of Parkinson’s Disease” (Cells, 2025).
Entries after “also recorded” stand apart in the source; their conditions may differ.

Key:
6-OHDA-lesioned rats = test: Potentiation of L-dopa-induced contralateral rotations in unilaterally 6-OHDA-lesioned rats; format: in vivo, rat; details: 5 mg/kg i.p. with L-dopa 3 mg/kg i.p., turns in 2 h, versus L-dopa alone
Experimental: Rats (275–300 g) were anesthetized and placed on a David Kopf stereotaxic apparatus (Tujunga, CA, USA) and infused, using a stainless steel cannula, into the left medial forebrain bundle [coordinates A = −2.2, L = +1.5 from bregma, V = −7.9 from the dura, according to the atlas of Pellegrino et al. (1979) [34]] with 6-OHDA (8 μg/4 μL of saline containing 0.05% ascorbic acid). Rats were pretreated with desipramine (10 mg/kg i.p.) to prevent damage to noradrenergic neurons.
Rotational behavior was assessed in hemispherical bowls (50 cm diameter), with sawdust on the floor, in which each rat was connected to an automated rotameter system (Panlab s.l., Barcelona, Spain) capable of detecting the number of full (360°) rotations in both directions (ipsilateral and contralateral to the lesioned hemisphere). Rats were placed in the bowls 30 min before drug administration to acclimatize and extinguish any spontaneous rotational behavior, and both contralateral and homolateral rotations were measured in 10 min blocks for 120 min after drug injection. The total number of contralateral and homolateral rotations (mean ± SEM) in a 2 h testing period were calculated.
Potentiation of L-dopa-induced rotational behavior: two weeks after the unilateral 6-OHDA lesion, rats were screened based on their contralateral rotations in response to L-dopa (50 mg/kg i.p.) + benserazide (30 mg/ kg i.p.). Rats not showing at least 300 contralateral rotations during the 2 h testing period were eliminated from the study. Three days later, rats were administered with a subthreshold dose of L-dopa (3 mg/kg i.p.) + benserazide (6 mg/kg i.p.) in combination with the vehicle or with a dose of 5 mg/kg i.p of 1, 4, or 5. Compounds were administered simultaneously with L-dopa. Benserazide was always injected 30 min before L-dopa.
In the rotational behavior experiments, the mean and S.E.M. of the total number of contralateral rotations were calculated. Significant differences between groups were evaluated by one-way ANOVA followed by a Newman–Keuls post hoc test.

spontaneous motility = test: Spontaneous motility in rats; format: in vivo, rat; details: for Effect on spontaneous motility: 5 mg/kg i.p.; for Effect on motility at higher doses: 10 and 15 mg/kg
human A2AAR = target: T1, human A2AAR (Homo sapiens, UniProt P29274); test: Radioligand binding, displacement of [3H]NECA at human A2AAR in CHO cells; details: for Selectivity A1/A2A / Selectivity A3/A2A: ratio of Ki values at human ARs; for Ki: [3H]-NECA displacement, human A2AAR in CHO cells, geometric mean with 95% confidence limits, read-out: Ki A2A
T1 construct: expressed in transfected cells; host or cells: CHO cells, crude membrane fractions
T1 sequence (P29274 whole entry): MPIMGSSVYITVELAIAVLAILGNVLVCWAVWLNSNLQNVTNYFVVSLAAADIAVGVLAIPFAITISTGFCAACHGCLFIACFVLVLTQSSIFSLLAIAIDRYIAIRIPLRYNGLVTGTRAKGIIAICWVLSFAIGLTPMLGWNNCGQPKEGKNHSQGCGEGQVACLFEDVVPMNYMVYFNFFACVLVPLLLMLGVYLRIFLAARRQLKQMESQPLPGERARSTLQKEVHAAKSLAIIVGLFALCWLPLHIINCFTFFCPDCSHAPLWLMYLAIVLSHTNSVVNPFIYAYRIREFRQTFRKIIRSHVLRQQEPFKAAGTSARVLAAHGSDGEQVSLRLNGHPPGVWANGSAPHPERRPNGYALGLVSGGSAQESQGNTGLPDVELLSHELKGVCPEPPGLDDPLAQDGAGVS
Experimental: The radioligand binding experiments were carried out exactly as described previously. For A1AR binding, 1 nM [^3H]CCPA was used as a radioligand, whereas 30 and 10 nM [^3H]NECA were used for A2A and A3 ARs, respectively. Nonspecific binding was determined in the presence of 1 mM theophylline (A1AR) or […] R-PIA (A2A and A3 ARs). Ki values were calculated from competition curves by nonlinear curve fitting with the program SCTFIT [31].
CHO cells stably transfected with human ARs were grown adherently and maintained in Dulbecco’s Modified Eagles Medium with nutrient mixture F12 (DMEM/F12) without nucleosides, containing 10% fetal calf serum, penicillin (100 U/mL), streptomycin (100 μg/mL), L-glutamine (2 mM), and Geneticin (G-418, 0.2 mg/mL) at 37 °C in 5% CO2/95% air, as described earlier. For radioligand binding studies and measurement of adenylyl cyclase activity, crude membrane fractions were prepared from fresh or frozen cells with two different protocols described earlier. The determination of adenylyl cyclase activity followed the procedure described earlier. IC50 values for the inhibition of adenylyl cyclase stimulated (in the case of A2BAR) with 5 μM NECA were calculated with the Hill equation and converted to Ki values with the Cheng and Prusoff equation [32].
[^3H]CCPA (2-chloro-N^6-cyclopentylAdo) and [^3H]NECA (5′-N-ethylcarboxamidoAdo) were used as specific radioligands at A1ARand A2A / A3 ARs, respectively. Furthermore, the ability of the same compounds to inhibit NECA-stimulated adenylyl cyclase activity was evaluated at the A2BAR subtype. The results of the binding studies (A1, A2A, and A3 ARs) and functional data (A2BAR) are reported in Table 1 as Ki or IC50 values in nM, together with the data on the reference compounds 1–3.

[1] = system: catalepsy induced by haloperidol; test: Haloperidol-induced catalepsy, vertical grid test; format: in vivo, rat; details: rats; for Effect on catalepsy induced by haloperidol: 5 mg/kg i.p. given 90 min after haloperidol 0.2 mg/kg s.c., 90 min testing period; for Duration of anticataleptic effect: 5 mg/kg i.p., haloperidol 0.2 mg/kg s.c., time after drug administration
Experimental: Male Sprague Dawley rats (200–300 g, Charles River, Calco, Italy) were housed in groups of 4–6 in standard polycarbonate cages with sawdust bedding and maintained on a 12 h light/dark cycle (lights on at 8:00 am). Food and water were freely available. All experiments were conducted in accordance with the guidelines for animal experimentation of the EU directives (2010/63/EU; L.276; 22 September 2010) and approved by the Committee on Animal Experimentation (CESA; protocol code 29456, 21 March 2012) of the University of Cagliari. Experiments were designed to minimize animal discomfort and to reduce the number of animals used.
Catalepsy was estimated using the vertical grid test. The test was carried out by placing a rat with the four paws on a wire grid (43–25 cm) at an angle of about 70° in respect to the bench surface. Catalepsy was determined by measuring the time in which the rat maintained a given position. The test was terminated when the rat moved one paw or when 90 s had elapsed from the placement of the rat on the grid. Catalepsy assessments were repeated every 10–15 min intervals. […] A2AAR antagonists were injected 90 min after haloperidol administration to evaluate their effects on deeply cataleptic rats. […]
For catalepsy evaluation, the mean and S.E.M. of the seconds of immobility during each test section were calculated. Significant differences between groups were evaluated by one-way analysis of variance (ANOVA) followed by a Newman–Keuls post hoc test.
After 40 min of haloperidol administration (0.2 mg/kg s.c.), a significant catalepsy was induced in rats, which reached its maximum at 60–70 min [18, 24]. Therefore, the administration of the A2AAR antagonists was made 90 min after haloperidol to evaluate their effects on deeply cataleptic rats.

Row | Effect on spontaneous motility (spontaneous motility) | Effect on motility at higher doses (spontaneous motility) | Selectivity A1/A2A (human A2AAR) | Selectivity A3/A2A (human A2AAR) | Ki (human A2AAR) [nM] | SMILES | Number of contralateral rotations induced by subthreshold L-dopa (6-OHDA-lesioned rats) | Efficacy on catalepsy, preliminary studies ([1]; 5 mg/kg) | Effect on catalepsy induced by haloperidol [1] | Duration of anticataleptic effect [1] [min] | Efficacy on catalepsy, preliminary studies ([1]; 1 and 3 mg/kg)
1 | did not modify spontaneous motility | caused hypermotility | 23 | 97 | 3.7 | CCOc1nc2c(N)nc(OCCc3ccccc3)nc2n1CC [Compound 4, 8-ethoxy-9-ethyl-2-phenethoxyadenine] | significantly increased | fully effective | significantly antagonized catalepsy; also recorded: longer duration and a strong intensity | 10 to 90 | low efficacy on catalepsy
2 | did not modify spontaneous motility | caused hypermotility | 21 | 408 | 1.2 | CCn1c(I)nc2c(N)nc(OCCc3ccccc3)nc21 [Compound 5, 9-ethyl-8-iodo-2-phenethoxy-9H-purin-6-amine] | significantly increased | fully effective | significantly antagonized catalepsy | ≤ 60 | low efficacy on catalepsy

Row | SMILES | Effect on spontaneous motility (spontaneous motility) | Effect on motility at higher doses (spontaneous motility) | Selectivity A1/A2A (human A2AAR) | Selectivity A3/A2A (human A2AAR) | Ki (human A2AAR) [nM] | Number of contralateral rotations induced by subthreshold L-dopa (6-OHDA-lesioned rats) | Efficacy on catalepsy, preliminary studies ([1]; 5 mg/kg) | Effect on catalepsy induced by haloperidol [1] | Duration of anticataleptic effect [1] [min] | Efficacy on catalepsy, preliminary studies ([1]; 1 and 3 mg/kg)
3 | CCn1c(Br)nc2c(N)nc(OCCc3ccccc3)nc21 [Compound 1, 8-bromo-9-ethyl-2-phenetoxyadenine] | did not modify spontaneous motility | caused hypermotility | 14 | 641 |  | did not increase | fully effective | significantly antagonized catalepsy | 10 to 90 | low efficacy on catalepsy
